pIC50: −log10 of the molar value.
Key:
[1] = target: T1, Organic anion transporter 3 (Homo sapiens, UniProt Q8TCC7); experiment: (§1) Inhibition of human OAT3 expressed in CHO cells assessed as inhibition of fluorescein uptake at 500 uM over 20 mins relative to untreated-control; format: ADME, cell-based; details: cho, 20 min, 500 µM
T1 sequence (Q8TCC7 whole entry): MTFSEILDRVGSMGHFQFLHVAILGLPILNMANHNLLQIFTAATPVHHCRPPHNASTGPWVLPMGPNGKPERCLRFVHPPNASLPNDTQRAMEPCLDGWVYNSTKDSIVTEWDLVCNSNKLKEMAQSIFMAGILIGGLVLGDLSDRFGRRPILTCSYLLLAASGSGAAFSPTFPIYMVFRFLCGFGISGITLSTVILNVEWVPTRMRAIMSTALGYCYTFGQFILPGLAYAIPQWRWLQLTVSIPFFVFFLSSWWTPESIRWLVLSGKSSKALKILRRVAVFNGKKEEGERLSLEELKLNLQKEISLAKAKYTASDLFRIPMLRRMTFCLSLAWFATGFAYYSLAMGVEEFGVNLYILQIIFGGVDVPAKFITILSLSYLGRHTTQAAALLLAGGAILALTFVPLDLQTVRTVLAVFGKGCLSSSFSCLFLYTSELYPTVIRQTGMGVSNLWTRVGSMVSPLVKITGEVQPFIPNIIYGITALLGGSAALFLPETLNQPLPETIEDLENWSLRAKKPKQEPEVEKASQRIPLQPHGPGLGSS

[2] = target: T2, Solute carrier family 22 member 6 (Mus musculus, UniProt Q8VC69); experiment: Inhibition of mouse OAT1 expressed in CHO cells assessed as inhibition of fluorescein uptake at 500 uM over 20 mins relative to untreated-control; format: ADME, cell-based
T2 sequence (Q8VC69 whole entry): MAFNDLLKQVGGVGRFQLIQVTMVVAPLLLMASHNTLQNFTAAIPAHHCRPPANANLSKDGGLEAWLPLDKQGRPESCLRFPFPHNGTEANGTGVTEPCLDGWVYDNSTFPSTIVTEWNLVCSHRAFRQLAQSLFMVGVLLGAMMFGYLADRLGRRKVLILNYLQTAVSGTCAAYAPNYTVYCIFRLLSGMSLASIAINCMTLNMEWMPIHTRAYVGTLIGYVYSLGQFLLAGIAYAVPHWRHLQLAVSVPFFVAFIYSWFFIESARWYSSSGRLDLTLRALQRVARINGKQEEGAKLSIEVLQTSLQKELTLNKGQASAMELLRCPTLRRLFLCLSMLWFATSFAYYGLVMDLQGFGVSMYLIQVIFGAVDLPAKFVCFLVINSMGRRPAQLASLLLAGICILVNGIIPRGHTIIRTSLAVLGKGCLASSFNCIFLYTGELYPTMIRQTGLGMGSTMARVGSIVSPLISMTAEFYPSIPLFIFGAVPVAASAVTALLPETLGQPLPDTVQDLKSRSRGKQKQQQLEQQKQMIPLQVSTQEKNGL

[3] = target: T3, Organic anion transporter 3 (Mus musculus, UniProt O88909); experiment: Inhibition of mouse OAT3 expressed in CHO cells assessed as inhibition of fluorescein uptake at 500 uM over 20 mins relative to untreated-control; format: ADME, cell-based
T3 sequence (O88909 whole entry): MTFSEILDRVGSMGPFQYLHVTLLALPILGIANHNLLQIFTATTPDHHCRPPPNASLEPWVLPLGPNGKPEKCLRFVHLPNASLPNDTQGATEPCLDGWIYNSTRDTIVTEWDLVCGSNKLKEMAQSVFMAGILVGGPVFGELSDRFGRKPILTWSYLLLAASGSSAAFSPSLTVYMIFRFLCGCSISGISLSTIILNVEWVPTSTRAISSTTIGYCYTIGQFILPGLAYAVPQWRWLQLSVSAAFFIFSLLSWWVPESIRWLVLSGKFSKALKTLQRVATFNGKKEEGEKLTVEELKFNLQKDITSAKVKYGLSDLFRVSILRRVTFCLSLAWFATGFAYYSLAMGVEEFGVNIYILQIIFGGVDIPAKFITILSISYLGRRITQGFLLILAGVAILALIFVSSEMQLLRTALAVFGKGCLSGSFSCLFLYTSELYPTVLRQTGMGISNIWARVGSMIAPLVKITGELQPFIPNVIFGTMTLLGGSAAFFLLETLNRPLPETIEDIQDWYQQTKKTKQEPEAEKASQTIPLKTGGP

OAT3 [4] = target: T4, OAT3 (Homo sapiens, UniProt Q8TCC7); experiment: Inhibition of human OAT3 expressed in CHO cells assessed as inhibition of fluorescein uptake over 20 mins relative to untreated-control; format: ADME, cell-based; details: CHO cells expressing human OAT3, probe fluorescein
T4 sequence (Q8TCC7 whole entry): T1 sequence (Q8TCC7 whole entry)

[5] = target: T1, Organic anion transporter 3; experiment: Inhibition of human OAT3 using estrone-3-sulfate as substrate; format: ADME
OAT3 [6] = target: T4, OAT3; experiment: as §1; format: ADME, cell-based; details: CHO cells expressing human OAT3, probe fluorescein
[7] = target: T3, Organic anion transporter 3; experiment: Inhibition of mouse OAT3 expressed in CHO cells assessed as inhibition of fluorescein uptake at 1 mM over 20 mins relative to untreated-control; format: ADME, cell-based; details: 1000 µM
[8] = target: T3, Organic anion transporter 3; experiment: Inhibition of mouse OAT3 expressed in CHO cells assessed as inhibition of fluorescein uptake over 20 mins; format: ADME, cell-based
[9] = target: T3, Organic anion transporter 3; experiment: Inhibition of mouse OAT3 expressed in CHO cells assessed as inhibition of fluorescein uptake at 1 mM after 10 mins; format: ADME, cell-based; details: 1000 µM
[10] = target: T1, Organic anion transporter 3; experiment: Inhibition of human OAT3 expressed in CHO cells assessed as inhibition of fluorescein uptake at 1 mM over 20 mins relative to untreated-control; format: ADME, cell-based; details: 1000 µM
[11] = target: T1, Organic anion transporter 3; experiment: Inhibition of human OAT3 expressed in CHO cells assessed as inhibition of fluorescein uptake over 20 mins by Michaelis-Menten method; format: ADME, cell-based
[12] = target: T3, Organic anion transporter 3; experiment: Inhibition of mouse OAT3 expressed in CHO cells assessed as inhibition of fluorescein uptake over 20 mins by Michaelis-Menten method; format: ADME, cell-based

Row | Compound | inhibition (INH) [1] | inhibition (INH) [2] | inhibition (INH) [3] | pIC50 [8] | further results
1 | CC1(C)S[C@@H]2[C@H](N)C(=O)N2[C@H]1C(=O)O | Not Active | Not Active | Not Active | – | –
2 | CC1(C)S[C@@H]2[C@H](NC(=O)[C@H](N)c3ccccc3)C(=O)N2[C@H]1C(=O)O [AMPICILLIN] | Not Active | Not Active | Not Active | – | –
3 | CC1(C)S[C@@H]2[C@H](NC(=O)[C@H](NC(=O)N3CCNC3=O)c3ccccc3)C(=O)N2[C@H]1C(=O)O [AZLOCILLIN] | Not Active | Not Active | Not Active | – | –
4 | C[C@H]1[C@H](NC(=O)/C(=N\OC(C)(C)C(=O)O)c2csc(N)n2)C(=O)N1S(=O)(=O)O [AZTREONAM] | Not Active | Not Active | Not Active | – | –
5 | CC1(C)S[C@@H]2[C@H](NC(=O)C(C(=O)O)c3ccccc3)C(=O)N2[C@H]1C(=O)O (some centres not stated) [CARBENICILLIN] | Not Active | – | Not Active | – | inhibition at 20 min (OAT3 [4]): 70%
6 | N[C@@H](C(=O)N[C@@H]1C(=O)N2C(C(=O)O)=C(Cl)CS[C@H]12)c1ccccc1 [CEFACLOR ANHYDROUS] | Active | Not Active | Not Active | – | pIC50 [5]: 3.92
7 | CC1=C(C(=O)O)N2C(=O)[C@@H](NC(=O)[C@H](N)c3ccc(O)cc3)[C@H]2SC1 [CEFADROXIL] | – | – | Not Active | – | inhibition at 20 min, 500 µM (OAT3 [6]): 20%; inhibition (INH) [7]: Not Active
8 | CO[C@@]1(NC(=O)CSCC#N)C(=O)N2C(C(=O)O)=C(CSc3nnnn3C)CS[C@@H]21 [CEFMETAZOLE] | Not Active | Active | Not Active | 3.98 | –
9 | CCN1CCN(C(=O)N[C@@H](C(=O)N[C@@H]2C(=O)N3C(C(=O)O)=C(CSc4nnnn4C)CS[C@H]23)c2ccc(O)cc2)C(=O)C1=O [CEFOPERAZONE] | Not Active | – | Not Active | – | –
10 | CO/N=C(\C(=O)N[C@@H]1C(=O)N2C(C(=O)O)=C(COC(C)=O)CS[C@H]12)c1csc(N)n1 [CEFOTAXIME] | Not Active | – | Not Active | – | –
11 | CO[C@@]1(NC(=O)Cc2cccs2)C(=O)N2C(C(=O)O)=C(COC(N)=O)CS[C@@H]21 [CEFOXITIN] | Not Active | Not Active | Not Active | 4.24 | –
12 | NC(=O)c1cc[n+](CC2=C(C(=O)O)N3C(=O)[C@@H](NC(=O)[C@@H](c4ccccc4)S(=O)(=O)[O-])[C@H]3SC2)cc1 [CEFSULODIN] | Not Active | Not Active | Not Active | – | –
13 | CC(C)(O/N=C(\C(=O)N[C@@H]1C(=O)N2C(C(=O)[O-])=C(C[n+]3ccccc3)CS[C@H]12)c1csc(N)n1)C(=O)O [CEFTAZIDIME] | Not Active | Not Active | Not Active | – | –
14 | CO/N=C(\C(=O)N[C@@H]1C(=O)N2C(C(=O)O)=C(CSC(=O)c3ccco3)CS[C@H]12)c1csc(N)n1 [CEFTIOFUR] | Not Active | Not Active | Not Active | 4.45 | –
15 | CO/N=C(\C(=O)N[C@@H]1C(=O)N2C(C(=O)O)=C(COC(N)=O)CS[C@H]12)c1ccco1 [CEFUROXIME] | Not Active | Not Active | Not Active | – | –
16 | CC1=C(C(=O)O)N2C(=O)[C@@H](NC(=O)[C@H](N)c3ccccc3)[C@H]2SC1 [CEPHALEXIN ANHYDROUS] | Not Active | Not Active | – | – | –
17 | CC(=O)OCC1=C(C(=O)O)N2C(=O)[C@@H](NC(=O)Cc3cccs3)[C@H]2SC1 [CEPHALOTHIN] | Not Active | – | Not Active | 4.48 | –
18 | Cc1onc(-c2ccccc2Cl)c1C(=O)N[C@@H]1C(=O)N2[C@@H]1SC(C)(C)[C@@H]2C(=O)O [CLOXACILLIN] | Not Active | Not Active | Not Active | 4.51 | –
19 | Cc1onc(-c2c(Cl)cccc2Cl)c1C(=O)N[C@@H]1C(=O)N2[C@@H]1SC(C)(C)[C@@H]2C(=O)O [DICLOXACILLIN] | Active | Active | Active | 4.78 | –
20 | COc1cccc(OC)c1C(=O)N[C@@H]1C(=O)N2[C@@H]1SC(C)(C)[C@@H]2C(=O)O [METHICILLIN] | Not Active | Not Active | Not Active | 3.94 | –
21 | CCOc1ccc2ccccc2c1C(=O)N[C@@H]1C(=O)N2[C@@H]1SC(C)(C)[C@@H]2C(=O)O [NAFCILLIN] | Not Active | Not Active | Not Active | 4.46 | –
22 | Cc1onc(-c2ccccc2)c1C(=O)N[C@@H]1C(=O)N2[C@@H]1SC(C)(C)[C@@H]2C(=O)O [OXACILLIN] | Active | Not Active | Active | 4.46 | –
23 | CC1(C)S[C@@H]2[C@H](NC(=O)Cc3ccccc3)C(=O)N2[C@H]1C(=O)O [PENICILLIN G] | Active | – | – | 4.05 | –
24 | CC1(C)S[C@@H]2[C@H](NC(=O)COc3ccccc3)C(=O)N2[C@H]1C(=O)O [PENICILLIN V] | Not Active | Not Active | Not Active | 4.31 | –
25 | CCN1CCN(C(=O)N[C@@H](C(=O)N[C@@H]2C(=O)N3[C@@H]2SC(C)(C)[C@@H]3C(=O)O)c2ccccc2)C(=O)C1=O [PIPERACILLIN] | Not Active | Active | Not Active | – | –
26 | CCCN(CCC)S(=O)(=O)c1ccc(C(=O)O)cc1 [PROBENECID] | Not Active | – | Not Active | 5.52 | inhibition (INH) [9]: Active; inhibition (INH) [10]: Active; inhibition (INH) [11]: Dose-dependent effect; inhibition (INH) [12]: Dose-dependent effect; inhibition (INH) [7]: Active
27 | CC1(C)S[C@@H]2[C@H](NC(=O)[C@H](C(=O)O)c3ccsc3)C(=O)N2[C@H]1C(=O)O [TICARCILLIN] | Not Active | – | Not Active | 3.63 | –

From ChEMBL document CHEMBL3525990, “Organic anion transporter 3 interacts selectively with lipophilic β-lactam antibiotics” (Drug Metab Dispos, 2013)
